These results are taken from the supplement of paper PMC12613149.

A short description of data set [1]: reversed-phase LC retention time (C18, 15 min MeOH gradient); higher = more hydrophobic / later elution.
The nature of data set [2]: collision cross section (TIMS, N2 drift gas) of the primary ion; higher = larger gas-phase ion size.
Setting [3] is: ionization mode: ESI+, ion species: [M+H]+.
The mark [4] stands for this setting: ionization mode: ESI-, ion species: [M-H]-.

For `O=C(O)COCCN1CCN(C(c2ccccc2)c2ccc(Cl)cc2)CC1` (centres undefined) [Cetirizine], the entries for the “reversed-phase LC retention time” value in data set [1] (setting [3]) and in data set [1] (setting [4]) were 13.5 min and 14.6 min, respectively. The collision cross section in data set [2] (setting [3]) turned out to be 200.88 Å²; in data set [2] (setting [4]) it was 195.01 Å².
With `C[C@H](CCC(=O)O)[C@H]1CC[C@H]2[C@@H]3[C@H](O)C[C@@H]4C[C@H](O)CC[C@]4(C)[C@H]3CC[C@]12C` [Chenodeoxycholic acid], in data set [1] (setting [4]), the “reversed-phase LC retention time” value amounted to 15.6 min. For the same compound, the collision cross section in data set [2] (setting [4]) amounted to 209.87 Å².
On to `O=C(NC(CO)C(O)c1ccc([N+](=O)[O-])cc1)C(Cl)Cl` (centres undefined) [Chloramphenicol], for which the “reversed-phase LC retention time” value in data set [1] (setting [4]) was found to be 9.83 min. The collision cross section in data set [2] (setting [4]) is on record as 165.75 Å².
For the compound `CNC(=O)c1cc(Cl)cc(C)c1NC(=O)c1cc(Br)nn1-c1ncccc1Cl` [Chlorantraniliprole], the “reversed-phase LC retention time” value in data set [1] (setting [3]) was found to be 13.5 min; in data set [1] (setting [4]), 13.8 min. Besides, the collision cross section in data set [2] (setting [3]) was 199.14 Å²; in data set [2] (setting [4]), 197.51 Å².
Take `Cc1cc(Cl)ccc1/N=C/N(C)C` [Chlordimeform]: the “reversed-phase LC retention time” value in data set [1] (setting [3]) worked out at 8.19 min. Besides, in data set [2] (setting [3]), the collision cross section stood at 145.93 Å².
On the same counts, the results for `CCOP(=O)(OCC)OC(=CCl)c1ccc(Cl)cc1Cl` [Chlorfenvinphos] are 15.7 min and 169.3 Å².
On the same counts, the results for `NC(=NCCCCCCN=C(N)N=C(N)Nc1ccc(Cl)cc1)N=C(N)Nc1ccc(Cl)cc1` [Chlorohexidine] are 12.4 min and 224.29 Å².
Take `Oc1ccc(Cl)cc1Cc1ccccc1` [Chlorophene]: the “reversed-phase LC retention time” value in data set [1] (setting [4]) stood at 15.9 min. In addition, in data set [2] (setting [4]), the collision cross section is 147.97 Å².
On the same counts, the results for `N#Cc1c(O)c(Cl)c(Cl)c(C#N)c1Cl` [Chlorothalonil-4-hydroxy] are 11.8 min and 135.03 Å².
Consider `Cc1ccc(NC(=O)N(C)C)cc1Cl` [Chlorotoluron], for which the “reversed-phase LC retention time” value in data set [1] (setting [3]) was 12.5 min. Besides, the collision cross section in data set [2] (setting [3]) worked out at 147.58 Å².
On the same counts, the results for `CN(C)C(=O)Nc1ccc(Oc2ccc(Cl)cc2)cc1` [Chloroxuron] are 14.6 min and 175 Å².
With `N#Cc1cc(Cl)c(O)c(Cl)c1` [Chloroxynil], the “reversed-phase LC retention time” value in data set [1] (setting [4]) was determined as 6.76 min. In addition, the collision cross section in data set [2] (setting [4]) was 125.1 Å².
For `CN(C)CCC(c1ccc(Cl)cc1)c1ccccn1` (centres undefined) [Chlorpheniramine], the “reversed-phase LC retention time” value in data set [1] (setting [3]) came out at 10.8 min. The compound also showed a collision cross section in data set [2] (setting [3]) of 164.13 Å².
Take `CC(C)OC(=O)Nc1cccc(Cl)c1` [Chlorpropham]: in data set [1] (setting [4]), the “reversed-phase LC retention time” value came out at 14.7 min. In data set [2] (setting [4]), the collision cross section is reported as 147.2 Å².
With `COc1nc(C)nc(NC(=O)NS(=O)(=O)c2ccccc2Cl)n1` [Chlorsulfuron], the “reversed-phase LC retention time” value in data set [1] (setting [3]) was 12.1 min; in data set [1] (setting [4]) it was 9.09 min. Further, the collision cross section is on record as 177.23 Å² in data set [2] (setting [3]) and 177.5 Å² in data set [2] (setting [4]).
Take `C[C@H](CCC(=O)O)[C@H]1CC[C@H]2[C@@H]3[C@H](O)C[C@@H]4C[C@H](O)CC[C@]4(C)[C@H]3C[C@H](O)[C@]12C` [Cholic acid]: the “reversed-phase LC retention time” value in data set [1] (setting [4]) was 14.7 min. The compound also registered a collision cross section in data set [2] (setting [4]) of 203.99 Å².
For `O=c1cc(-c2ccccc2)oc2cc(O)cc(O)c12` [Chrysin], the “reversed-phase LC retention time” value in data set [1] (setting [3]) turned out to be 14.1 min; in data set [1] (setting [4]), 12.8 min. Besides, the collision cross section in data set [2] (setting [3]) was 154.65 Å²; in data set [2] (setting [4]), 156.4 Å².
On the same counts, the results for `CN=C(NC#N)NCCSCc1nc[nH]c1C` [Cimetidine] are 6.06 min, 8.43 min, 158.06 Å² and 165.63 Å².
Turning to `O=C(O)c1cn(C2CC2)c2cc(N3CCNCC3)c(F)cc2c1=O` [Ciprofloxacin], in data set [1] (setting [3]), the “reversed-phase LC retention time” value is 8.22 min. The collision cross section in data set [2] (setting [3]) stood at 175.82 Å².
In the case of `CN(C)CCCC1(c2ccc(F)cc2)OCc2cc(C#N)ccc21` (centres undefined) [Citalopram], the “reversed-phase LC retention time” value in data set [1] (setting [3]) came to 11.3 min. The collision cross section in data set [2] (setting [3]) amounted to 182.06 Å².
On the same counts, the results for `CCC1OC(=O)C(C)C(OC2CC(C)(OC)C(O)C(C)O2)C(C)C(OC2OC(C)CC(N(C)C)C2O)C(C)(OC)CC(C)C(=O)C(C)C(O)C1(C)O` (centres undefined) [Clarithromycin] are 13.9 min and 267.43 Å².
On the same counts, the results for `CC(C)(C)C(=O)C(Oc1ccc(Cl)cc1)n1ccnc1` (centres undefined) [Climbazole] are 13.1 min and 172.6 Å².
